For one assay, the system named is cats. Description: Cat gel panel feeding test, monadic exposure (palatability, gel intake). It is filed as in vivo. As for the experimental part: A cat gel panel was used to compare the palatability of a range of concentrations of oleic acid in a monadic exposure. The dose response tested 8 concentrations of oleic acid ranging from 0.001% oleic acid to 1% oleic acid. All products (including the blank, 0% oleic acid) contained 25 mM L-histidine as an ingestive/positive tastant to increase the baseline gel intake, enabling the identification of a potential negative impact of the oleic acid concentration. A cat gel panel was used to compare the palatability of a range of concentrations of linoleic acid in a monadic exposure. The dose response tested 8 concentrations of linoleic acid ranging from 0.001% linoleic acid to 1% linoleic acid. All products (including the blank, 0% linoleic acid) contained 25 mM L-histidine as an ingestive/positive tastant to increase the baseline gel intake, enabling the identification of a potential negative impact of the linoleic acid concentration. A cat gel panel was used to compare the palatability of a range of concentrations of lauric acid in a monadic exposure. The dose response tested 5 concentrations of lauric acid ranging from 0.05% lauric acid to 1% lauric acid. All products (including the blank, 0% lauric acid) contained 25 mM L-histidine as an ingestive/positive tastant to increase the baseline gel intake, enabling the identification of a potential negative impact of the lauric acid concentration. A cat gel panel was used to compare the palatability of a range of concentrations of palmitic acid in a monadic exposure. The dose response tested 5 concentrations of palmitic acid ranging from 0.05% palmitic acid to 1% palmitic acid. All products (including the blank, 0% palmitic acid) contained 25 mM L-histidine as an ingestive/positive tastant to increase the baseline gel intake, enabling the identification of a potential negative impact of the palmitic acid concentration.

A further assay deals with dogs. The experiment in a line: Dog panel feeding test, monadic exposure (palatability, gel intake), two single-breed panels. It is filed as in vivo. The following applies: 100 mM L-histidine. On the procedure:
Two different dog panels were used to compare the palatability of concentrations of linoleic acid. Each panel was made up of a single breed of dog; each panel being a different breed. The canine panels were used to compare the palatability of a range of concentrations of linoleic acid in a monadic exposure. The dose response tested 3 concentrations of linoleic acid ranging from 0.01% linoleic acid to 1% linoleic acid. All products (including the blank, 0% linoleic acid) contained 100 mM L-histidine as an ingestive/positive tastant to increase the baseline gel intake, enabling the identification of a potential negative impact of the linoleic acid concentration. Two different dog panels were used to compare the palatability of concentrations of oleic acid. Each panel was made up of a single breed of dog; each panel being a different breed. The canine panels were used to compare the palatability of a range of concentrations of oleic acid in a monadic exposure. The dose response tested 3 concentrations of oleic acid ranging from 0.01% oleic acid to 1% oleic acid. All products (including the blank, 0% oleic acid) contained 100 mM L-histidine as an ingestive/positive tastant to increase the baseline gel intake, enabling the identification of a potential negative impact of the oleic acid concentration.

The next assay has as its system cat GPR120. The experiment in a line: Calcium-sensitive fluorescent dye (Fluo8) FLIPR assay, transiently transfected cells. The assay is classed as cell-based. The following applies: in vitro assays with the feline receptors.
Setting [1] is: 0.1% fatty acid in gel with 25 mM L-histidine.
Setting [2] is: 0.6% fatty acid in gel with 25 mM L-histidine.
Setting [3] is: dog panel Breed 1, 1% fatty acid (highest tested).

Structures are written as SMILES.

Procedure for cat GPR120: These constructs were then transiently transfected into the CHO K1 immortalised cell line, and other commonly used cell lines using Lipofectamine 2000 and testing was performed to establish the successful expression of the target protein. The testing was carried out using a calcium sensitive fluorescent dye (Fluo8). Transfected cells were seeded into 384 well assay plates. By loading the cells with the dye and then challenging the cells with an agonist for the receptor the response of the cells could be recorded on the FLIPR^TETRA instrument by measuring the increase in fluorescence associated with intra-cellular calcium release, thus confirming the functional expression of the receptor. Suitable experimental controls eliminate any possibility that the response of the cells is non-specific or that the fluorescence increase is due to factors other than the release of intracellular calcium by the cells.

Turning to `CCCCCCCCCCCC(=O)O` [lauric acid], the results for the “intake compared to the blank” value in the assay on cats (setting [1]), in the assay with cats (setting [2]) and in the assay with cats (1% fatty acid in gel with 25 mM L-histidine) were “highest intake overall”, “significantly aversive/negative” and “significantly aversive/negative”, respectively.

In the case of `CCCCC/C=C\C/C=C\CCCCCCCC(=O)O` [linoleic acid], the “response compared to the blank” value with dogs (setting [3]) is “significant positive/ingestive response”; with dogs (dog panel Breed 2, 3 concentrations tested, 0.01% to 1%) it was “smaller differences between the linoleic acid concentrations tested”. Moreover, the “intake compared to the blank” value with cats (setting [1]) is recorded as “significantly higher intake”; in the assay with cats (higher concentrations (above 0.1%, up to 1%), 25 mM L-histidine), “trend for the higher concentrations to become aversive/negative”. For the same compound, the “activation of feline receptors in vitro” value with cat GPR120 was “positive activation”.

Take `CCCCCCCC/C=C\CCCCCCCC(=O)O` [oleic acid]: the “response compared to the blank” value was “significant positive/ingestive response” in the assay with dogs (setting [3]) and “significant positive/ingestive response” in the assay with dogs (dog panel Breed 2, 0.1% fatty acid). The “intake compared to the blank” value in the assay on cats (setting [1]), in the assay on cats (0.2% (w/v) fatty acid in gel with 25 mM L-histidine), in the assay on cats (0.3% (w/v) fatty acid in gel with 25 mM L-histidine) and with cats (setting [2]) was “significantly higher intake” in each case. For the same compound, the “activation of feline receptors in vitro” value in the assay with cat GPR120 is recorded as “positive activation”.

In the case of `CCCCCCCCCCCCCCCC(=O)O` [palmitic acid], the “intake compared to the blank” value in the assay on cats (any of the 5 concentrations tested, 0.05% to 1%, 25 mM L-histidine) is recorded as “no significant difference”.

These data come from patent publication US10768184B2, “Methods for increasing palatability of pet foodstuff” (MARS, INCORPORATED, priority 2013, dated 2020).
